The test system of one assay is serum LH. In words: Acute effect of intravenous injection on serum LH (radioimmunoassay). It is filed as in vivo. The conditions noted are these: rats, intravenous 5.0 micrograms, as LH-RP-2 standard. The procedure:
(§1) For intravenous peptide injections anesthetized rats were fitted surgically with indwelling intra-arterial cannulae 24 hours before the tests. The next day samples of arterial blood were withdrawn from the unanesthetized rats immediately before and after the injection of graded doses of the pineal antigonadotropin. Prolactin and LH were measured in the blood samples by standard double antibody radioimmunoassay with kits provided by the National Hormone and Pituitary Program. The acute effects of 5.0 micrograms of the antigonadotropin are illustrated in the table below:
(§2) Values for LH are expressed as the National Institutes of Health reference standard LH-RP-2. Means±S.E.M. are indicated (n=5)

The subject of another assay is serum PRL. In words: Acute effect of intravenous injection on serum PRL (radioimmunoassay). The conditions noted are these: rats, intravenous 5.0 micrograms. In kind it is in vivo. The procedure: as §1, §2
Assay [1] deals with rat hypothalamic median eminence strips. The experiment in a line: Dopamine release from hypothalamic median eminence strips in vitro. The conditions noted are these: for Release of dopamine from rat hypothalamus in vitro (in words): median eminence strips. The procedure: Rat hypothalamic median eminence strips were rapidly dissected and placed in culture plates containing 100 μl of a Kreb's solution saturated with O2 in accord with the procedure described in Racke, K. and E. Muscholl, J. of Neurochemistry 46:745, 1986. The median eminence strips were maintained at 37° C. under 95% O2 /5%CO2 in a Dubnoff shaking incubator. The media were replaced after a ten minute pre-incubation period. 50 μl samples were taken at 30, 60 and 90 min of incubation for catecholamine determination, with replacement of the removed media. 20 μl of 0.1M perchloric acid were added to each sample before storage at -20°. Media contents of dopamine, norepinephrine and various indoleamine and catecholamine metabolites were determined by HPLC coupled with electrochemical detection in accord with the procedure described in Gregory, V. M., B. Larsen and B. Benson, J. of Chromatography 345:140-144,1985.

Assay [2] deals with pituitary secretion of LH and PRL. The experiment in a line: Intravenous or intracerebroventricular injections: pituitary secretion of LH and PRL. It is filed as in vivo.
Assay [3] concerns male and female rats and mice. In words: Antigonadotropic effects after chronic daily subcutaneous injection. It is filed as in vivo. The conditions noted are these: two to four weeks. The procedure:
The neurotropic pineal antigonadotropin of the present invention was assayed in vivo, as is described below. Natural and synthetic analogs were injected into male and female rats and mice in graded doses. Antigonadotropic effects were assessed after a period of chronic daily subcutaneous injection in a variety of solvents/carriers, e.g. physiological saline or corn oil. […] Additionally, blood levels of the gonadal steroids (testosterone in males and estrogens in females) were reduced.

Assay [4] deals with anterior pituitary dopamine content. In words: Acute effect of a single subcutaneous injection on anterior pituitary dopamine content. In kind it is in vivo. The conditions noted are these: mice; for Pituitary dopamine content: single subcutaneous injection of 25 nanograms.

Residues, ends and D or L forms follow the SMILES beside them. No end group written: not given here.

Experimental findings from patent US5382568A, “Decapeptide having dopamine stimulating activity” (Arizona Board of Regents, priority 1993, dated 1995) are described below.

Regarding `C[C@@H](O)[C@H](NC(=O)[C@H](CCCCN)NC(=O)[C@@H](NC(=O)[C@@H](NC(=O)[C@@H]1CCCN1C(=O)[C@H](Cc1ccccc1)NC(=O)[C@@H](N)CO)[C@@H](C)O)[C@@H](C)O)C(=O)N[C@@H](Cc1ccc(O)cc1)C(=O)N[C@@H](Cc1ccccc1)C(=O)N1CCC[C@H]1C(=O)O` [PAG (1), NH2 -Ser-Phe-Pro-Thr-Thr-Lys-Thr-Tyr-Phe-Pro-COOH] (H-SFPTTKTYFP-OH), the “Serum LH” value is 0.25 ng/mL with serum LH (postinjection time 0'); 0.21 ng/mL in the assay on serum LH (postinjection time 15'); 0.15 ng/mL in the assay on serum LH (postinjection time 30'); 0.10 ng/mL in the assay with serum LH (postinjection time 45'); 0.14 ng/mL in the assay with serum LH (postinjection time 60'). Further, the “Serum PRL” value is given as 100 ± 11 % of Initial Control Value with serum PRL (postinjection time 0'); 55 ± 6 % of Initial Control Value in the assay with serum PRL (postinjection time 15'); 38 ± 6 % of Initial Control Value in the assay on serum PRL (postinjection time 30'); 31 ± 4 % of Initial Control Value with serum PRL (postinjection time 45'); 22 ± 5 % of Initial Control Value with serum PRL (postinjection time 60').

`C[C@@H](O)[C@H](NC(=O)[C@H](CCCCN)NC(=O)[C@@H](NC(=O)[C@@H](NC(=O)[C@@H]1CCCN1C(=O)[C@H](Cc1ccccc1)NC(=O)[C@@H](N)CO)[C@@H](C)O)[C@@H](C)O)C(=O)N[C@@H](Cc1ccc(O)cc1)C(=O)N[C@@H](Cc1ccccc1)C(=O)N1CCC[C@H]1C(=O)O` [PAG (2), NH2 -Ser-Phe-Pro-Thr-Thr-Lys-Thr-Tyr-Phe-Pro-COOH] (H-SFPTTKTYFP-OH): the “Serum LH” value in the assay with serum LH (postinjection time 0') worked out at 0.26 ng/mL; in the assay with serum LH (postinjection time 15'), 0.20 ng/mL; in the assay with serum LH (postinjection time 30'), 0.15 ng/mL; in the assay on serum LH (postinjection time 45'), 0.12 ng/mL; in the assay with serum LH (postinjection time 60'), 0.11 ng/mL. Besides, the “Serum PRL” value in the assay with serum PRL (postinjection time 0') is 100 ± 8 % of Initial Control Value; in the assay on serum PRL (postinjection time 15'), 44 ± 6 % of Initial Control Value; with serum PRL (postinjection time 30'), 30 ± 3 % of Initial Control Value; with serum PRL (postinjection time 45') it was 25 ± 3 % of Initial Control Value; in the assay on serum PRL (postinjection time 60'), 32 ± 6 % of Initial Control Value. The “Release of dopamine from rat hypothalamus in vitro (in words)” value in assay [1] (listed as synthetic decapeptide) is “effectively stimulates the release of dopamine into the incubation medium”.

Consider “SFPTTKTYFP [PAG, NH2 -Ser-Phe-Pro-Thr-Thr-Lys-Thr-Tyr-Phe-Pro-COOH]”, for which, in assay [2] (intracerebroventricular infusions), the “Release of pituitary LH (pulsatile)” value is “inhibited release of pituitary LH, reducing both the amplitude and frequency of pulsatile LH release into the blood”. Moreover, the “Pituitary secretion of LH and PRL” value in assay [2] (intravenous or intracerebroventricular injections) was “demonstrable inhibitory effects on pituitary secretion of LH and PRL”. Further, the “Pituitary and blood levels of gonadotropins and prolactin” value in assay [3] was “reductions of pituitary and blood levels of gonadotropins and prolactin”. In addition, in assay [3], the “Pituitary, gonadal and accessory reproductive organ weights” value is “significant reductions in pituitary, gonadal and accessory reproductive organ weights”. Also, in assay [4] (single injection of 25 nanograms), the “Anterior pituitary dopamine content (in words)” value is listed as “significant increase in anterior pituitary dopamine content”. The Pituitary dopamine content in assay [4] (postinjection time 0') was 0.539 ± 0.046 nanograms per mg of pituitary; in assay [4] (postinjection time 15') it was 0.795 ± 0.064 nanograms per mg of pituitary; in assay [4] (postinjection time 30'), 1.801 ± 0.126 nanograms per mg of pituitary. For the same molecule, the “Dopamine released into the incubation medium (accumulative)” value in assay [1] (10^-5 M, incubation time 30') turned out to be 35.2 ± 7.6 pg/µL; in assay [1] (10^-5 M, incubation time 60'), 100.2 ± 13 pg/µL; in assay [1] (10^-5 M, incubation time 90'), 182.9 ± 13.7 pg/µL; in assay [1] (10^-7 M, incubation time 30') it was 27.2 ± 2.1 pg/µL; in assay [1] (10^-7 M, incubation time 60'), 61.5 ± 5.3 pg/µL; in assay [1] (10^-7 M, incubation time 90'), 109.3 ± 10.8 pg/µL. The “Release of dopamine from rat hypothalamus in vitro (in words)” value in assay [1] (listed as pineal antigonadotropic decapeptide) was “stimulates the release of dopamine”.
